The values below come from patent US20050002859A1, “COX-2-targeted imaging agents” (Vanderbilt University, priority 2003, published 2005).

Structures are written as SMILES. Where a chain is given by its changes, count along the chain named. Read-outs that look alike come from different tables or passages of the source.

For one data set, the target named is T1, ovine COX-1 (Ovis aries, UniProt P05979).
T1 sequence (P05979 25-600): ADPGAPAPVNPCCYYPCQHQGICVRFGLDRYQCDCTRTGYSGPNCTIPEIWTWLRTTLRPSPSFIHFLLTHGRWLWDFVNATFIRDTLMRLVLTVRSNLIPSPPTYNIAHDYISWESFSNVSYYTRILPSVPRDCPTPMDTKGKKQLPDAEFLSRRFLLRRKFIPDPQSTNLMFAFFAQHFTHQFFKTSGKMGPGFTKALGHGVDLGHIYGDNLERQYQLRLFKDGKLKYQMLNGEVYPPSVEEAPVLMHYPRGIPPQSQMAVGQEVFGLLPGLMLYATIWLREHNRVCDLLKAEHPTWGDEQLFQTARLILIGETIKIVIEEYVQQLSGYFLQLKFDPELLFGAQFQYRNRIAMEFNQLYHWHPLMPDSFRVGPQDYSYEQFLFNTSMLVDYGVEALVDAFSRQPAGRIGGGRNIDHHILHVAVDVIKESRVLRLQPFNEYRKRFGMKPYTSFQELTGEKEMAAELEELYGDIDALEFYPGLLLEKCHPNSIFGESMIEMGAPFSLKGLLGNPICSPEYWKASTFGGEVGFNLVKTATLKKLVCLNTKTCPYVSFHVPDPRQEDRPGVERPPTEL
Description: Inhibition of purified ovine COX-1, TLC assay.

The target of data set [1] is T2, COX-2 (Homo sapiens, UniProt P35354).
T2 sequence (P35354 18-604): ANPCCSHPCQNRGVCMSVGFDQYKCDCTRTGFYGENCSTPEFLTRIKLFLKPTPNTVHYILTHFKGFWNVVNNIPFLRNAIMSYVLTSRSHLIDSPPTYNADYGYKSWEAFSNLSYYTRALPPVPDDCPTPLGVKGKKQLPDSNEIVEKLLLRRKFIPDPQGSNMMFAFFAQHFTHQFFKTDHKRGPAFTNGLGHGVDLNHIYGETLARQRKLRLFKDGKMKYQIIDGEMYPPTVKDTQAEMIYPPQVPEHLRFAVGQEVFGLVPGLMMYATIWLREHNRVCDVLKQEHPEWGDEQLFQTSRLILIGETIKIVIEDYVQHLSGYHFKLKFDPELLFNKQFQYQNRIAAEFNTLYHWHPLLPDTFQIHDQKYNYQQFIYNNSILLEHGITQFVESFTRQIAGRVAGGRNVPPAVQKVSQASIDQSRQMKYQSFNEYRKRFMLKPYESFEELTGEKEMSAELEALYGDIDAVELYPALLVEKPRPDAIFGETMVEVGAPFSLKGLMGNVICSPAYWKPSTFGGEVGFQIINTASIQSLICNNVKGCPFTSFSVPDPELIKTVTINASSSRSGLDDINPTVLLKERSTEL
Description: biochemical.
Description: (§2) One example of an in vitro screening method takes advantage of the fact that both human and murine recombinant COX-2 can be expressed and isolated in pure form from an Sf-9 cell expression system. Briefly, typical assays involve the incubation of COX-1 (44 nM) or COX-2 (66 nM) in a 200 μL reaction mixture containing 100 mM Tris-HCl, pH 8.0, 500 μM phenol and 50 μM ^14C-arachidonic acid (55 mCi/mmol) for 30 seconds at 37° C. […] The reaction is stopped by the addition of 200 μL of ethanol/methanol/1 M citrate, pH 4.0 (30:4:1). The extracted products are separated by thin layer chromatography (TLC), which allows quantitation of total product formation as well as assessment of product distribution. This assay is useful to define IC50 values for inhibition of either enzyme, and to determine time-dependency of inhibition. It also provides information concerning changes in products formed as a result of inhibition.
(§3) Apoenzyme was reconstituted by the addition of hematin to the assay mixtures. Human COX-2 was expressed in Sf9 insect cells by means of the pVL 1393 expression vector (BD Biosciences Pharmingen, San Diego, Calif., United States of America) and purified by ion exchange and gel filtration chromatography. […]
(§4) IC50 values for the inhibition of purified human COX-2 or ovine COX-1 by test compounds were determined by thin layer chromatography (TLC) radiography. […]

Data set [2] concerns rat carageenan footpad edema. As to the kind of experiment: Rat carageenan footpad edema model. It is filed as in vivo. Here is the method: The first is the rat carageenan footpad model. Maximal edema is obtained in this model 3 hours after carageenan injection.
Data set [3] addresses T3, COX-1 (Ovis aries, UniProt P05979).
T3 sequence (P05979 25-600): T1 sequence (P05979 25-600)
As to conditions: cited from earlier work.

In data set [4] the target is T2, COX-2. The conditions noted are these: cited from earlier work.
Data set [5] relates to HCT-15 colon cancer cells. The conditions noted are these: HCT-15 cells, do not express COX-2; cited from earlier work.
Data set [6] concerns the target T4, COX-2 activity in RAW 264.7 murine macrophage cell line (Mus musculus, UniProt Q05769).
T4 construct: The macrophages were exposed to lipopolysaccharide and γ-interferon to induce COX-2; endogenous in cells
T4 sequence (Q05769 18-604): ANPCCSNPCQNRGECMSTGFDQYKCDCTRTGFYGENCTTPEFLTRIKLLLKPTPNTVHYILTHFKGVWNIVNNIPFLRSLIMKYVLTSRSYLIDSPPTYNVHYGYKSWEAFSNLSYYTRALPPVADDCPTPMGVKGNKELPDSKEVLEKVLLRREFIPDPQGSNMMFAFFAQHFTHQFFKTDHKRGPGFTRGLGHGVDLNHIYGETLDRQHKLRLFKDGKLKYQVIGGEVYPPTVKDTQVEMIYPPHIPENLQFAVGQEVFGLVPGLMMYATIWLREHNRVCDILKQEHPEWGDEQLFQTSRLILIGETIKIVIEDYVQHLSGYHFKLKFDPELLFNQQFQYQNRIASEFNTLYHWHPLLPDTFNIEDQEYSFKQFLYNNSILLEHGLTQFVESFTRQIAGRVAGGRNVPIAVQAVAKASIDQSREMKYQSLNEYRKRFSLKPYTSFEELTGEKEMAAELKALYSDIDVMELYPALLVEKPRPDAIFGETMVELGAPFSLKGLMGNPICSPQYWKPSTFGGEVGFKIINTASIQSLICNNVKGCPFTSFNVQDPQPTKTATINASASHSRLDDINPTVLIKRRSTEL
The conditions noted are these: LPS-activated RAW 264.7; exogenous arachidonic acid; read-out: IC50 for inhibition of PGD2 synthesis; cited from earlier work.

Data set [7] concerns serum thromboxane B2 (COX-1 activity). As to conditions: cited from earlier work.
Another data set concerns Sprague-Dawley rats. As to the kind of experiment: 14-day daily oral toxicity in Sprague-Dawley rats. It counts as in vivo. The conditions noted are these: daily oral 100 mg/kg, at 14 days.
For another data set, the target named is T5, S516A mutant of COX-2 (Homo sapiens, UniProt P35354, S516A).
T5 sequence (P35354 18-604 S516A): T2 sequence (P35354 18-604) with S499A
The conditions noted are these: cited from earlier work.

In data set [8] the test system is PGE2 in pouch exudate (COX-2 activity). The conditions noted are these: cited from earlier work.
In a further data set the test system is gastric lesions. The conditions noted are these: rat, in vivo, 100 mg/kg.
The test system of the next data set is HCA-7 colon cancer cells. As to conditions: HCA-7 cells, express high levels of COX-2; read-out: IC50 growth in soft agar; cited from earlier work.
The target in data set [9] is T2, COX-2. As to the kind of experiment: Inhibition of purified COX-2 by NSAID derivatives (species not stated). It counts as biochemical. As to conditions: purified COX-2. The method, then:
(§1) While the TLC assay described above provides considerable information, it is labor-intensive for screening large numbers of candidate NSAID derivatives. Accordingly, as an alternative, a simplified assay can be used. Incubation conditions can be essentially as described above, except all candidate derivatives are first screened at a concentration of 1 mM with a preincubation time of 30 minutes. The substrate need not be radiolabeled, and the reaction can be stopped by the addition of 2 μL of formic acid. Product formation can be quantitated by enzyme-linked immunosorbent assay (ELISA) using commercially available kits. […] Other in vitro assay methods for screening NSAID derivatives for activity (e.g., selectivity for the COX-2 enzyme) can also be used by the skilled artisan.

Data set [10] has as its target T3, COX-1. As to the kind of experiment: Inhibition of COX-1 by NSAID derivatives (species not stated). It counts as biochemical. Here is the method:
as §1

Data set [11] concerns the target T4, COX-2 activity in RAW 264.7 murine macrophage cell line. As to the kind of experiment: Inhibition of COX-2 activity (PGD2 synthesis) in activated RAW264.7 macrophages. It counts as cell-based. The text has this: Thus, NSAID derivatives that are identified as potentially useful in the methods described herein can be further tested using, for example, the RAW264.7 murine macrophage cell line. These cells are readily available (for example, from the American Type Culture Collection, Manassas, Va., United States of America) and are easily cultured in large numbers. They normally express low levels of COX-1 and very low to undetectable levels of COX-2. Upon exposure to bacterial lipopolysaccharide (LPS), however, COX-2 levels increase dramatically over the ensuing 24 hour period, and the cells produce PGD2 and PGE2 from endogenous arachidonic acid stores (generally, ˜1 nmol/10^7 cells total PG formation). After LPS exposure, the addition of exogenous arachidonic acid results in the formation of additional PGD2 and PGE2 as a result of metabolism by the newly synthesized COX-2.
This system provides a number of approaches for testing the inhibitory potency of COX-2-selective ligands (e.g., inhibitors). In general, following LPS activation, cells can be treated for 30 minutes with the desired concentrations of candidate derivative(s) in DMSO. ^14C-arachidonic acid can be added, and the cells can be incubated for 15 minutes at 37° C. Product formation can be assessed following extraction and TLC separation of the culture medium. Alternatively, the effects of candidate derivatives on PG synthesis from endogenous arachidonic acid can be assessed by incubating cells with desired concentrations of candidate derivatives 30 minutes prior to LPS exposure. Following a 24 hour incubation, medium can be collected and extracted, and the amount of PGD2 and/or PGE2 can be assayed by gas chromatography-mass spectrometry, liquid chromatography-mass spectrometry, or ELISA.
Inhibition of COX-2 Activity in Activated RAW264.7. Protocols for COX-2 inhibition in RAW264.7 cells have been previously described (Kalgutkar et al., 1998b). Briefly, cells (6.2×10^6 cells/T25 flask) were activated with lipopolysaccharide (1 μg/mL) and γ-interferon (10 U/mL) in serum-free DMEM for 7 hours and then treated with inhibitor (0-2 μM) for 30 minutes at 37° C. Exogenous arachidonate metabolism was determined by adding [1-^14C]-arachidonate acid (20 μM) for 15 minutes at 37° C. IC50 values are the average of two independent determinations.
The macrophages were exposed to lipopolysaccharide and γ-interferon to induce COX-2 and then treated with several concentrations of Compound 355.

The mark [12] stands for this setting: Rattus norvegicus, po, maximal edema 3 hours after carageenan injection, read-out: ED50 inhibition of edema formation.
Where [13] appears, read: activated RAW 264.7 cells, read-out: IC50 for inhibition of PGD2 synthesis/production.

Description for ovine COX-1: as §2, §3, §4

`COc1ccc2c(c1)c(CC(=O)Nc1ccc(F)cc1)c(C)n2C(=O)c1ccc(Cl)cc1F` [Compound 360, 2-[1-(4-Chloro-2-fluoro-benzoyl)-5-methoxy-2-methyl-1H-indol-3-yl]-N-(4-fluoro-phenyl)-acetamide]: the figures for the IC50 against ovine COX-1 and on COX-2 [1] were more than 60000 nM and 100 nM, respectively.
The ED50 is the midpoint of the dose-response relation. Take `CC(=O)Oc1ccccc1C(=O)O` [aspirin]: the median effective dose (ED50) in data set [2] (setting [12]) came to 125 mg/kg. Further, on COX-1 [3], the “potency against COX-1 relative to COX-2” value is on record as 10-100 times.
Consider `CCCCC#CCSc1ccccc1OC(C)=O` [APHS, o-(acetoxyphenyl)hept-2-ynyl sulfide], for which, on COX-2 [4], the “selectivity for COX-2 relative to aspirin” value was 100 times and the “time to complete inactivation of COX-2” value was not above 30 min. In addition, on COX-2 [4] (irreversible inactivation of COX-2), the kinact/Ki is approximately 3000 M⁻¹ s⁻¹. For the same compound, the effect on growth result in [5] is “no effect”. Moreover, in data set [6], the IC50 was 120 nM. The “effect on serum TXB2 levels” value in data set [7] (dose of 5 mg/kg) is “no effect”. For the same compound, in data set [7] (dose of 50 mg/kg), the “reduction of serum TXB2 levels” value is given as 11%. In addition, the “toxicities by gross or histopathological evaluation” value with Sprague-Dawley rats is “no detectable toxicities”. Also, the “inhibitory effect on S516A mutant of COX-2” value on S516A mutant of COX-2 is on record as “resistant”. In data set [8] (dose of 5 mg/kg), the “reduction of PGE2 levels in pouch exudate” value is 95%. The “reduction of pouch PGE2 levels” value in data set [8] (dose of 50 mg/kg) is 100%. The gastric toxicity entry with gastric lesions was “no gastric toxicity”. Moreover, the ED50 in [2] (setting [12]) was found to be 6 mg/kg. Besides, the IC50 in the data set with HCA-7 colon cancer cells was 2000 nM.
Turning to `COc1ccc2c(c1)c(CC(=O)O)c(C)n2C(=O)c1ccc(Cl)cc1` [indomethacin], in data set [7] (2 mg/kg dose), the “reduction of TXB2 levels” value is on record as 90%. In addition, in data set [8] (2 mg/kg dose), the “reduction of PGE2 levels” value is listed as 100%. Moreover, the ED50 in data set [2] (rat carageenan footpad model (Example 14), read-out: ED50) was found to be 2 mg/kg.
As for `O=C(c1ccccc1)c1ccc2n1CCC2C(=O)NCc1ccc(F)cc1` (stereo not shown) [Compound 19, p-fluorobenzyl derivative of ketorolac amide], the IC50 against COX-2 [9] is 80 nM; against COX-1 [10] it was more than 65000 nM; in data set [11] (setting [13]), 200 nM.
In the case of `COc1ccc2c(c1)c(CC(=O)NCCOC(=O)c1cc(I)cc(I)c1I)c(C)n2C(=O)c1ccc(Cl)cc1` [Compound 5], the IC50 was 50 nM against COX-2 [9], more than 50000 nM on COX-1 [10] and 3500 nM in data set [11] (read-out: IC50 for inhibition of COX-2 activity in RAW 264.7 macrophages).
For `COc1ccc2c(c1)c(CC(=O)NCCNC(=O)c1ccc(F)cc1)c(C)n2C(=O)c1ccc(Cl)cc1` [Compound 355, N-(2-{2-[1-(4-Chloro-benzoyl)-5-methoxy-2-methyl-1H-indol-3-yl]-acetylamino}-ethyl)-4-fluoro-benzamide], the results for the IC50 (against ovine COX-1; against COX-2 [1]; in data set [11] (setting [13])) were more than 60000 nM, 103 nM and 500 nM, respectively.
Regarding `CSc1ccccc1OC(C)=O` [o-(Acetoxyphenyl)methyl sulfide], the “inhibitory potency and selectivity for COX-2” value at COX-2 [4] is listed as “moderate”.
